These are literature values, as cited in patent US9661851B1, “Synergistic herbicidal composition and use thereof” (ROTAM AGROCHEM INTERNATIONAL COMPANY LIMITED, priority 2015, dated 2017).

Molecules are shown by their SMILES.

The conditions of this data set: hydrolysis in water, storage with moisture, in formulations; stated with reference to U.S. Ser. No. 14/957,768.

With `COC(=O)c1ccc(CNS(C)(=O)=O)c(S(=O)(=O)NC(=O)Nc2nc(OC)cc(OC)n2)c1` [crystalline modification I of mesosulfuron-methyl] [methyl 2-[(4,6-dimethoxypyrimidin-2-ylcarbamoyl)sulfamoyl]-α-(methanesulfonamido)-p-toluate], the stability result is “improved stability”.
As to `COC(=O)c1ccc(CNS(C)(=O)=O)c(S(=O)(=O)NC(=O)Nc2nc(OC)cc(OC)n2)c1` [mesosulfuron-methyl in the amorphous state] [methyl 2-[(4,6-dimethoxypyrimidin-2-ylcarbamoyl)sulfamoyl]-α-(methanesulfonamido)-p-toluate], the stability entry is given as “highly unstable”.
